In patent US20140228293A1, “PARATHYROID HORMONE ANALOGS, COMPOSITIONS AND USES THEREOF” (THE GENERAL HOSPITAL CORPORATION, priority 2011, published 2014):
Like-named read-outs stand apart in the source and are kept apart here.

Assay: Stability study by HPLC-MS under ambient conditions
Format: physicochemical
Description: High performance liquid chromatography-mass spectroscopy (HPLC-MS) was used to monitor the degradation of four synthetic compounds over a period of time.

[1] = room temperature, air, water solution, neutral pH, HPLC-MS

| Substance | degradation after 7 days (estimated based on UV signal) [1] | degradation after 7 days (estimated based on UV signal) |
| --- | --- | --- |
| [Nle^8,18]hPTH(1-37) [[Nle^8,11]hPTH(1-37)] | about 70% | – |
| [Nle^8,18]hPTH(1-84) [[Nle^8,11]hPTH(1-84)] | – | less than 10% |
| hPTH(1-37) (SVSEIQLMHNLGKHLNSMERVEWLRKKLQDVHNFVAL) | about 70% | – |
